Data on 73 compounds can be found in ChEMBL document CHEMBL4483862, “Open-source discovery of chemical leads for next-generation chemoprotective antimalarials” (2018).

The structures appear in SMILES notation. Some results are limits rather than exact numbers.

The assay concerns Plasmodium berghei. Nature of the assay: Luciferase/luciferin-expressing antifolate-resistant parasites were used to infect a culture of HepG2 cells that were pre-incubated with compounds. Infected hepatocytes emit light due to the luciferase reaction. Assay results are presented as the percent inhibition of light emission compared to control. […]. The conditions noted are these: sporozoite; for IC50: read-out: LUCIFERASE INFECTION ASSAY - IC50; for IC90: read-out: LUCIFERASE INFECTION ASSAY - IC90. In kind it is functional.

The term IC50 denotes the concentration at which inhibition is half-maximal. The IC90 is the concentration needed for an effect of 90%. In the case of `O=C1/C(=C\c2ccncc2)C(c2ccccc2)Oc2ccccc21` (stereo unspecified), the IC50 came to 9.06 µM and the IC90 amounted to 9.96 µM.
The like results for `O=C1c2ccccc2C(=Cc2ccc(C(F)(F)F)cc2)c2ccccc21` were, in that order, 3.58 µM and 4.1 µM.
For the compound `CN(C)c1ccc(/C=C(\C#N)c2nc3ccccc3[nH]2)cc1`, the IC50 is greater than 11.4 µM and the IC90 was greater than 11.4 µM.
In the case of `FC(F)(F)Oc1ccc(N=C(S)Nc2ccc(OC(F)(F)F)cc2)cc1`, the IC50 was greater than 8.33 µM and the IC90 is greater than 8.33 µM.
With `S=C(NCc1ccco1)Nc1ccc(Oc2ccc(Cl)cc2)cc1`, the IC50 was greater than 9.2 µM and the IC90 was greater than 9.2 µM.
For `CCCCCCCCCCCCN1C(=O)CSC1c1cccnc1` (stereo unspecified), the half-maximal inhibitory concentration (IC50) is greater than 9.47 µM and the IC90 is greater than 9.47 µM.
On to `Nc1nc2c(c(C(F)(F)F)n1)CCc1ccccc1-2`, for which the IC50 is greater than 12.4 µM and the IC90 is greater than 12.4 µM.
Regarding `O=C(Nc1ccc(OC(F)(F)F)cc1)Nc1cc(-c2cccs2)n[nH]1`, the IC50 was greater than 8.96 µM and the IC90 is greater than 8.96 µM.
For the compound `CCCSc1ccc2c3c(cccc13)C(=O)N(CCc1ccccn1)C2=O`, the IC50 was greater than 8.77 µM and the IC90 is greater than 8.77 µM.
For `CC(NC(=S)Nc1ccc(Oc2ccc(Cl)cc2)cc1)c1ccccc1` (stereo unspecified), the IC50 was determined as 7.1 µM and the IC90 was greater than 8.62 µM.
Regarding `Brc1ccc(Nn2c(-c3ccccc3)nc3c2C2C=CC=CC2C=N3)cc1` (stereo unspecified), the IC50 worked out at 3.6 µM and the IC90 turned out to be 5.07 µM.
For `CCCCCNS(=O)(=O)c1cccc2c(N)cccc12`, in that order: 3.76 µM and greater than 11.3 µM.
For `CC(C)c1ccc(Nc2ncnc(N)n2)c(Br)c1`, in that order: greater than 10.7 µM and greater than 10.7 µM.
For `Cc1cc(I)ccc1N1C(=O)C=CC1=O`, in that order: 5.55 µM and greater than 10.5 µM.
In the case of `N=C(N)SCc1csc(-c2ccc(Br)cc2)n1`, the IC50 is greater than 9.05 µM and the IC90 was greater than 9.05 µM.
For the compound `COc1ccccc1NC(=S)NC(c1ccccc1)c1ccccc1`, the IC50 is greater than 9.47 µM and the IC90 was greater than 9.47 µM.
For `CS(=O)(=O)Nc1ccc(S(=O)(=O)NC23CC4CC(CC(C4)C2)C3)cc1`, the IC50 is greater than 8.58 µM and the IC90 was greater than 8.58 µM.
`O=C(CSCCCN1CCN(c2cccc(Cl)c2)CC1)N/N=C/c1ccccc1`: the IC50 was greater than 7.66 µM and the IC90 is greater than 7.66 µM.
For `O=c1c2ccccc2c(-c2ccc(F)cc2F)nn1-c1ccccc1`, the IC50 was greater than 9.87 µM and the IC90 was greater than 9.87 µM.
Turning to `CCOC(=O)C1=C(N)n2c(s/c(=C\c3ccc(OC)cc3)c2=O)=CC1c1ccc(OC)cc1` (stereo unspecified), the IC50 was greater than 7.1 µM and the IC90 was greater than 7.1 µM.
Consider `CCCN1CCCC(NC(=S)Nc2ccc(Br)cc2C)C1` (stereo unspecified), for which the IC50 is greater than 8.91 µM and the IC90 was greater than 8.91 µM.
`COCCCNC(=S)N/N=C/c1ccc(Cl)c(Cl)c1`: the IC50 was greater than 10.3 µM and the IC90 was greater than 10.3 µM.
On to `c1ccc2cc(-c3csc(Nc4cccc5ccccc45)n3)ccc2c1`, for which the IC50 was greater than 9.36 µM and the IC90 is greater than 9.36 µM.
Regarding `CC(C)Cc1ccc(C(=O)CC(Sc2ccccc2N)c2ccc(Cl)cc2)cc1` (stereo unspecified), the half-inhibitory concentration (IC50) was determined as 0.135 µM and the IC90 was 1.03 µM.
For `N#Cc1ccccc1OC(=O)Nc1ccc(OC(F)(F)F)cc1`, in that order: 3.31 µM and 3.62 µM.
`Cc1ccc(NC(=S)Nc2ccc(Cl)cc2)cc1F`: the IC50 is greater than 11.2 µM and the IC90 is greater than 11.2 µM.
Regarding `Cc1ccc(Cl)cc1NC(=S)N/N=C\c1cccc2ccccc12`, the IC50 was 0.805 µM and the IC90 was 1.85 µM.
For `O=C(N/N=C/c1cc(Cl)cc(Cl)c1O)N/N=C/c1cc(Cl)cc(Cl)c1O`, in that order: greater than 7.57 µM and greater than 7.57 µM.
For `CCCC(/N=C/c1cc(Cl)ccc1O)/N=C/c1cc(Cl)ccc1O`, in that order: greater than 9.03 µM and greater than 9.03 µM.
The like results for `COc1ccc(OC)c(S(=O)(=O)Nc2ccc(S(=O)(=O)Nc3cc(C(F)(F)F)cc(C(F)(F)F)c3)cc2)c1` were, in that order, greater than 5.65 µM and greater than 5.65 µM.
In the case of `S=C(N/N=C\c1cccc2ccccc12)Nc1cccc(Cl)c1Cl`, the IC50 is greater than 8.82 µM and the IC90 was greater than 8.82 µM.
Consider `CC(C)(C)c1ccc(C(=O)Nc2cc(Cl)cc(Cl)c2)cc1`, for which the IC50 is greater than 10.2 µM and the concentration for an effect of 90% (IC90) was greater than 10.2 µM.
As to `O=S(=O)(c1ccc(Br)s1)N1CCC(C(c2ccccc2)c2ccccc2)CC1`, the IC50 was greater than 6.93 µM and the IC90 is greater than 6.93 µM.
With `COc1ccc(CCN2CSC(=S)N(CCc3ccc(OC)c(OC)c3)C2)cc1OC`, the IC50 is greater than 7.13 µM and the IC90 was greater than 7.13 µM.
For `S=C(N/N=C/c1ccc(Cl)cc1)Nc1cc(Cl)ccc1Cl`, the IC50 was greater than 9.2 µM and the IC90 was greater than 9.2 µM.
Turning to `O=C(Nc1ccc(OC(F)(F)F)cc1)N1CCN(c2cc(C(F)(F)F)nc3ccccc23)CC1`, the IC50 is greater than 6.81 µM and the IC90 is greater than 6.81 µM.
`N#C/C(=C\c1ccccc1Cl)c1nc2ccccc2[nH]1`: the IC50 was greater than 11.8 µM and the IC90 was greater than 11.8 µM.
As for `O=c1nc(SCc2ccc(Cl)cc2Cl)[nH]c2ccccc12`, the IC50 was greater than 9.79 µM and the IC90 was greater than 9.79 µM.
Turning to `N=C1C(=S)N(c2ccc(Cl)c(Cl)c2)C(=O)N1c1ccc(Cl)c(Cl)c1`, the IC50 is greater than 7.87 µM and the IC90 is greater than 7.87 µM.
Take `CCc1ccc(-n2nnnc2C/C=N/Nc2ccc(F)cc2)cc1`: the IC50 is greater than 10.2 µM and the IC90 is greater than 10.2 µM.
`Cc1ccc(N2C(=O)C=CC2=O)cc1C`: the 50% inhibitory concentration (IC50) is 6.57 µM and the IC90 came out at 12.2 µM.
For `O=C1N=C(N2CCCCC2)S/C1=C(/C=C(CC(=O)c1ccccc1)c1ccccc1)c1ccccc1`, in that order: greater than 6.7 µM and greater than 6.7 µM.
Take `CC(=O)N(/N=C/c1ccc(C(F)(F)F)cc1)C1=NN(C(C)=O)C(c2ccc(C(F)(F)F)cc2)S1` (stereo unspecified): the IC50 is greater than 6.57 µM and the IC90 was greater than 6.57 µM.
For the compound `ONC(=Nc1cccc(C(F)(F)F)c1)c1ccccc1`, the IC50 was greater than 11.8 µM and the IC90 is greater than 11.8 µM.
Regarding `Cc1cccc(C)c1NC(=O)NCCSCc1c(Cl)cccc1Cl`, the IC50 was greater than 8.61 µM and the IC90 was greater than 8.61 µM.
On to `Cc1cc(Cl)ccc1NC(N)=NN`, for which the IC50 was greater than 10.1 µM and the IC90 was greater than 10.1 µM.
In the case of `Cc1ccc(N2C(=O)C=CC2=O)cc1N1C(=O)C=CC1=O`, the IC50 amounted to 7.78 µM and the IC90 was greater than 11.7 µM.
The like results for `CC(C)(C)c1ccc(NC(=S)NCCCCCCNC(=S)Nc2ccc(C(C)(C)C)cc2)cc1` were, in that order, greater than 6.62 µM and greater than 6.62 µM.
Turning to `COc1ccc(/C=C2\CN(Cc3ccccc3)CC3(C=NN(CCO)C3c3ccc(OC)cc3)C2)cc1` (stereo unspecified), the IC50 was greater than 6.63 µM and the IC90 is greater than 6.63 µM.
For `NC(=S)CCOC1CCN(Cc2ccccc2)CC1`, the IC50 was greater than 11.9 µM and the IC90 is greater than 11.9 µM.
With `Clc1ccc(N/N=C/c2sccc2Oc2ccccc2)cc1`, the IC50 is greater than 10 µM and the IC90 is greater than 10 µM.
On to `N#Cc1c(OCC(F)(F)F)ccc(Sc2ccc(C(F)(F)F)cn2)c1OCC(F)(F)F`, for which the IC50 came out at 5.5 µM and the IC90 was greater than 6.93 µM.
The like results for `COc1ccc2c(c1)CC/C(=C\c1ccc(C(C)C)cc1)C2=O` were, in that order, greater than 10.8 µM and greater than 10.8 µM.
In the case of `c1ccn(C2CCNCC2)c1`, the IC50 is greater than 22 µM and the IC90 was greater than 22 µM.
Regarding `CCCc1cc(=O)oc2cc(OCC(=O)NNC(=S)NC(=O)c3ccc(Cl)cc3)ccc12`, the IC50 is greater than 6.96 µM and the IC90 is greater than 6.96 µM.
On to `O=C(CSc1ccc(C(F)(F)F)cn1)Nc1cc(C(F)(F)F)cc(C(F)(F)F)c1`, for which the IC50 is greater than 7.36 µM and the IC90 was greater than 7.36 µM.
`CC(=O)N(/N=C/c1ccc(Cl)cc1)C1=NN(C(C)=O)C(c2ccc(Cl)cc2)S1` (stereo unspecified): the IC50 is greater than 7.58 µM and the 90% effect concentration (IC90) is greater than 7.58 µM.
`CC(=O)Nc1ccc(S(=O)(=O)Oc2ccc(C)cc2[N+](=O)[O-])cc1`: the IC50 was greater than 9.42 µM and the IC90 is greater than 9.42 µM.
With `COc1cc(/C=N/NC(=S)Nc2cc(Cl)ccc2Cl)ccc1OS(=O)(=O)c1ccc(C)cc1`, the IC50 was greater than 6.29 µM and the IC90 is greater than 6.29 µM.
`COc1ccccc1C1CCN(c2ccc([N+](=O)[O-])c(C(F)(F)F)c2)CC1`: the IC50 is greater than 8.68 µM and the IC90 is greater than 8.68 µM.
As to `CCCc1c(Cc2c(F)cccc2Cl)c(=O)oc2cc(OC(=O)c3ccccc3Cl)ccc12`, the IC50 is greater than 6.8 µM and the IC90 is greater than 6.8 µM.
Consider `O=C1OC(CC(=O)c2csc3ccccc23)c2ccccc21` (stereo unspecified), for which the IC50 worked out at 6.16 µM and the IC90 stood at 8.63 µM.
For `O=C1N(CN2CCCCC2)c2ccc(Br)cc2C12OCCO2`, in that order: greater than 8.99 µM and greater than 8.99 µM.
For `CC(C)(C)c1ccc(C(=O)Nc2ccc(Oc3ccc(Cl)cc3)cc2)cc1`, in that order: greater than 8.69 µM and greater than 8.69 µM.
As to `N#C/C(=C\C=C\c1ccccc1)c1cccc(Cl)c1`, the IC50 was greater than 12.4 µM and the IC90 is greater than 12.4 µM.
With `O=c1c(Cl)c2[nH]c3ccccc3nc-2c2ccccc12`, the IC50 was greater than 11.8 µM and the IC90 is greater than 11.8 µM.
Consider `COc1cc(C)c2c(c1)C=CC1C2CCC2(C)C(O)CCC12` (stereo unspecified), for which the IC50 is greater than 11.1 µM and the IC90 is greater than 11.1 µM.
Consider `Cc1ccc(N2C(=N)C(=S)N(c3ccc(Cl)c(Cl)c3)C2=O)cc1`, for which the IC50 is greater than 9.06 µM and the IC90 was greater than 9.06 µM.
`O=C1C=CC(=O)N1c1ccccc1Cl`: the IC50 is 6.18 µM and the IC90 was greater than 15.9 µM.
The like results for `COc1ccccc1N1C(=O)C=CC1=O` were, in that order, greater than 16.2 µM and greater than 16.2 µM.
On to `O=C1C=CC(=O)N1c1cccc(Cl)c1`, for which the IC50 is greater than 15.9 µM and the IC90 was greater than 15.9 µM.
Consider `NC(=O)N/N=C/c1ccc(Cl)cc1`, for which the IC50 was greater than 16.7 µM and the IC90 is greater than 16.7 µM.
For `S=C(NCc1ccc(Cl)c(Cl)c1)Nc1cccnc1`, the IC50 was greater than 10.6 µM and the IC90 is greater than 10.6 µM.
